Results from patent US20060257474A1, “Remedies for glomerular diseases” (Kowa Co., Ltd., priority 2002, published 2006).
Counter-ions that a name gives are not always drawn.

Tested on: progressive anti-Thy-1 nephritic rat
Test: Pharmacological test to a progressive anti-Thy-1 nephritic rat: total amount of protein excretion in urine
Assay type: in vivo, Wistar female rats
Settings: 18 h urine
Method: Wistar female rats (5 weeks of age, purchased from Japan SLC Co., Ltd.) were quarantined and acclimatized for 4 days and then used for the test. First, a right kidney of the rat was removed through a flank incision under anesthesia with pentobarbital. After 2 weeks passed, an anti-Thy-1 antibody (monoclonal antibody 1-22-3; purchased from […] Laboratories Co., Ltd.) was intravenously administered (500 μg/rat) into the tail vein to thereby bring about progressive renal damage, and the following tests 1 to 3 were immediately investigated. […] Control group (antibody-treated and compound-non-administered group): N=8, an antibody-non-treated group: N=6. Test 2: dilazep hydrochloride (10 mg/kg) dissolved in a physiological saline was continuously intraperitoneally administered for 10 weeks. Control group (antibody-treated and compound-non-administered group): N=8, an antibody-non-treated group: N=6. […] Control group (antibody-treated and compound-non-administered group): N=10, an antibody-non-treated group: N=6. In each test, after administering the drugs for 10 weeks, urine was taken for 18 hours by means of a metabolic cage (Sugiyama Gen Co., Ltd.) to measure the total amount of protein excretion in urine.

Row | SMILES | total amount of protein excretion in urine (dilazep hydrochloride alone, 10 mg/kg intraperitoneally for 10 weeks, vs compound-non-administered control group (FIG. 2)) | total amount of protein excretion in urine (pitavastatin calcium alone, 10 mg/kg orally for 10 weeks, vs compound-non-administered control group (FIG. 1))
1 | COc1cc(C(=O)OCCCN2CCCN(CCCOC(=O)c3cc(OC)c(OC)c(OC)c3)CC2)cc(OC)c1OC [dilazep hydrochloride] | almost the same as that of the compound-non-administered group in the control | –
2 | O=C([O-])C[C@H](O)C[C@H](O)/C=C/c1c(C2CC2)nc2ccccc2c1-c1ccc(F)cc1.O=C([O-])C[C@H](O)C[C@H](O)/C=C/c1c(C2CC2)nc2ccccc2c1-c1ccc(F)cc1.[Ca+2] [pitavastatin calcium] | – | almost the same as that of the compound-non-administered group in the control
